Laboratory results from patent US20260215432A1, “ANTIMICROBIAL CONJUGATED OLIGOELECTROLYTES AND METHODS THEREOF” (National University of Singapore, priority 2023, published 2026).
Converted amounts (≈) assume the structure as drawn. Like-named read-outs stand apart in the source and are kept apart here.

Columns and labels:
[1] = system: PA; assay: MIC in physiological-mimicking environments (MHB); type: cell-based, P. aeruginosa
Excerpt: (§1) The complexities of the physiological environment often influence drug activity, particularly when cations in solution are implicated in their oligomerization-dependent mechanisms of action, such as for daptomycin. Binding of free drug to plasma proteins effectively reduces the available free concentration of the drug capable of killing bacteria, resulting in lower observable activity. We tested MIC values of DM4P and DM6P in the presence of human serum albumin (40 g L^−1) and high salt concentrations (Table 4). Under these conditions, the antimicrobial activity was minimally affected by these environmental factors, with MICs remaining within a 2-fold level.

[2] = system: E. coli. K12 (ATCC 10798); assay: MIC, broth microdilution in CA-MHB; type: cell-based; conditions: for MIC EC: CA-MHB
Protocol: (§2) Antimicrobial activity was screened against a range of pathogens made up of clinically relevant ESKAPE pathogens by determination of the minimum inhibitory concentration (MIC) in cation-adjusted Mueller-Hinton broth (CA-MHB).
(§3) Minimum inhibitory concentrations of COEs were determined through a broth microdilution method in accordance with the Clinical and Laboratory Standards Institute (CLSI) guidelines M07-A10. A single bacterial colony was isolated from an overnight culture and grown to mid-log phase (OD600~0.8). Compounds were prepared as a stock solution in DMSO and diluted in a sterile flat-bottom 96-well plate in CA-MHB. Subsequent concentrations were prepared by two-fold dilution of the initial solution. An equivalent volume of bacteria was added to the compound to a final concentration of 5×10^5 cfu/mL. Plates were incubated at 37° C. for 16-18 hours, and read at OD600 using a microplate reader (TECAN Spark®). […] MIC values were determined for each compound in triplicate.

[3] = system: A. baumanii (ATCC 17978); assay: MIC, broth microdilution in CA-MHB; type: cell-based; conditions: for MIC AB: CA-MHB
Protocol: as §2, §3

[4] = system: E. facium (ATCC 19434); assay: MIC, broth microdilution in CA-MHB; type: cell-based; conditions: for MIC FAC: CA-MHB
Protocol: as §2, §3

[5] = system: E. faecalis OG1RF (ATCC 47077); assay: MIC, broth microdilution in CA-MHB; type: cell-based; conditions: CA-MHB
Protocol: as §2, §3

[6] = system: S. aureus (ATCC 29213); assay: MIC, broth microdilution in CA-MHB; type: cell-based
Protocol: as §2, §3

[7] = system: K. pneumoniae (carbapenem-resistant Enterobacterales) (ATCC BAA1705); assay: MIC, broth microdilution in CA-MHB; type: cell-based; conditions: CA-MHB
Protocol: as §2, §3

[8] = system: Methicillin-resistant S. aureus (ATCC BAA1717); assay: MIC, broth microdilution in CA-MHB; type: cell-based; conditions: for MIC MRSA: CA-MHB
Protocol: as §2, §3

[9] = system: P. aeruginosa (ATCC47085); assay: MIC, broth microdilution in CA-MHB; type: cell-based; conditions: CA-MHB
Protocol: as §2, §3

[10] = system: A549 (lung epithelial cells); assay: Cytotoxicity against mammalian cell line; type: cell-based
Protocol: The cytotoxicity of the TPP COEs was also tested against a mammalian cell line (A549).

[11] = phosphate-buffered saline; below 10 μg mL^−1 estimated by turbidimetric screening
Protocol: The solubility of all the TPP derivatives was determined in phosphate-buffered saline (PBS) (Table S3).

[12] = system: M. abscesses (ATCC 19977); assay: MIC against mycobacterium in Middlebrook 7H9 broth; type: cell-based, M. abscessus
Protocol: We also examined non-tuberculous mycobacteria (NTM). These are opportunistic pathogens that are rising in clinical significance due to their increasing prevalence and treatment difficulty. The membrane of Mycobacterium is inherently a greater antibiotic permeability barrier due to its high lipid content relative to other pathogens and long-tailed mycolic acids that contributed to its high lipophilic character. The antimicrobial activity of the TPP analogues were also evaluated against Mycobacterium in Middlebrook 7H9 broth.

[13] = system: SA; assay: MIC in physiological-mimicking environments (MHB); type: cell-based, S. aureus
Excerpt: as §1

[14] = system: P. aeruginosa; assay: Resistance development by serial passaging at 0.5× MIC; type: cell-based
Protocol: (§4) The non-specific action of membrane-active antibiotics lends itself to minimal development of resistance development due to the large metabolic burden involved, unlike traditional antibiotics with a well-defined enzymatic target. Based on this premise, we passaged bacteria incubated with DM6P, or ciprofloxacin (control), at 0.5× MIC to investigate the adaptation of bacteria towards external antibiotic stress. As a control, treatment of MRSA with ciprofloxacin gave rise to antibiotic-resistant mutants within 4 passages, see FIG. 4a. […] Combined with its broad spectrum of activity, this feature opens opportunities for the use of COE antimicrobial agents to address polymicrobial infections with a lower rate of emerging antibiotic resistance.

[15] = system: MRSA; assay: as above; type: cell-based, S. aureus
Protocol: as §4

Molecule	MIC EC [2] [µg/mL]	MIC AB [3] [µg/mL]	MIC FAC [4] [µg/mL]	MIC FAE [5] [µg/mL]	MIC SA [6] [µg/mL]	MIC KP [7] [µg/mL]	MIC MRSA [8] [µg/mL]	MIC ([8]; towards MRSA, Table 3) [µg/mL]	MIC PA [9] [µg/mL]	IC50 [10] [µg/mL]	also measured
COc1cc(/C=C/c2ccc(OCCCC[P+](c3ccccc3)(c3ccccc3)c3ccccc3)c(OC)c2)ccc1OCCCC[P+](c1ccccc1)(c1ccccc1)c1ccccc1.[I-].[I-] [DM4P]	4	4	1	1	2	8	2	2	8	9	MIC CaCl2 ([1]; CaCl2 1 mM): 8 µg/mL; MIC MgCl2 ([1]; MgCl2 1.25mM): 8 µg/mL; MIC NaCl ([1]; NaCl 300 mM): 4 µg/mL; MIC HSA ([1]; human serum albumin 40 g L^−1): 8 µg/mL; MIC — ([1]; no additive): 8 µg/mL; solubility in PBS [11]: 138 µg/mL; MIC M. abscesses [12]: 8 µg/mL; MIC CaCl2 ([13]; CaCl2 1 mM): 2 µg/mL; MIC MgCl2 ([13]; MgCl2 1.25mM): 2 µg/mL; MIC NaCl ([13]; NaCl 300 mM): 4 µg/mL; MIC HSA ([13]; human serum albumin 40 g L^−1): 2 µg/mL; MIC — ([13]; no additive): 2 µg/mL
COc1cc(/C=C/c2ccc(OCCCCCC[P+](CCCO)(CCCO)CCCO)c(OC)c2)ccc1OCCCCCC[P+](CCCO)(CCCO)CCCO.[I-].[I-] [DM6THPP]	>64	>64	>64	>64	>64	>64	>64	> 64	>64	>1024	
COc1cc(/C=C/c2ccc(OCCCCCCCC[P+](c3ccccc3)(c3ccccc3)c3ccccc3)c(OC)c2)ccc1OCCCCCCCC[P+](c1ccccc1)(c1ccccc1)c1ccccc1.[I-].[I-] [DM8P]	>4	>4	1	1	>4	>4	4	4	>4	10	solubility in PBS [11]: 4 µg/mL; MIC M. abscesses [12]: 64 µg/mL
CC(=O)NC[C@H]1CN(c2ccc(N3CCOCC3)c(F)c2)C(=O)O1 [Linezolid, reference compound]											MIC ([12]; Mycobacteroides abscessus, ATCC19977): 8 µg/mL (≈ 23.7 µM)
CN[C@H](CC(C)C)C(=O)N[C@H]1C(=O)N[C@@H](CC(N)=O)C(=O)N[C@H]2C(=O)N[C@H]3C(=O)N[C@H](C(=O)N[C@H](C(=O)O)c4cc(O)cc(O)c4-c4cc3ccc4O)[C@H](O)c3ccc(c(Cl)c3)Oc3cc2cc(c3O[C@@H]2O[C@H](CO)[C@@H](O)[C@H](O)[C@H]2O[C@H]2C[C@](C)(N)[C@H](O)[C@H](C)O2)Oc2ccc(cc2Cl)[C@H]1O [Vancomycin, reference compound]						>128					MIC ([2]; Escherichia coli, ATCC10798, read-out: MIC EC): > 128 µg/mL; MIC ([3]; Acinetobacter baumannii, ATCC17978, read-out: MIC AB): > 128 µg/mL; MIC ([4]; read-out: MIC FAC): 1 µg/mL (≈ 0.69 µM); MIC ([8]; Staphylococcus aureus, ATCC BAA-1717 / MRSA, read-out: MIC MRSA): 1 µg/mL (≈ 0.69 µM)
O=C(O)c1cn(C2CC2)c2cc(N3CCNCC3)c(F)cc2c1=O [ciprofloxacin, reference compound]											resistance development [14]: this development occurred at a slower rate; passages until antibiotic-resistant mutants arise [15]: ≤ 4 passages
Polymyxin B [reference compound]	1	4				2			2		
